One assay has as its target full-length human PIKFYVE (Homo sapiens (Human), UniProt Q9Y2I7, L932S/Q1183K/Q995L/S1033A/S696N/T998S). The assay can be described thus: PIKfyve biochemical assay (ADP-Glo Kinase assay, Carna Biosciences). Particulars: ADP-Glo, GST-PIKFYVE, 10 μM to 3 nM; read-out: hPIKfyve IC50. The procedure:
(§1) PIKfyve Biochemical Assay. The biochemical PIKFyve inhibition assays were run by Carna Biosciences according to proprietary methodology based on the Promega ADP-Glo™ Kinase assay. […] GST-PIKFYVE was purified by using glutathione sepharose chromatography and used in an ADP-Glo™ Kinase assay (Promega). Reactions were set up by adding the test compound solution, substrate solution, ATP solution and kinase solution, each at 4× final concentrations. Reactions were prepared with assay buffer (50 mM MOPS, 1 mM DTT, pH7.2), mixed, and incubated in black 384 well polystyrene plates for 1 hour at room temperature. ADPGlo™ reagent was then added for 40 minutes, followed by kinase detection reagent for an additional 40 minutes. The kinase activity was evaluated by detecting relative light units on a luminescence plate reader. Samples were run in duplicate from 10 μM to 3 nM. […] IC50 values were calculated from concentration vs % inhibition curves by fitting to a four-parameter logistic curve.
as §1, with “The” for “PIKfyve Biochemical Assay. The”, “ADP-Glo™” for “ADPGlo™”, “uM” for “μM”, “curve. […]” for “curve.”
For orientation: In ADP-Glo the light output rises with the ADP produced.
full-length human PIKFYVE, sequence (Q9Y2I7 whole entry S696N/L932S/Q995L/T998S/S1033A/Q1183K): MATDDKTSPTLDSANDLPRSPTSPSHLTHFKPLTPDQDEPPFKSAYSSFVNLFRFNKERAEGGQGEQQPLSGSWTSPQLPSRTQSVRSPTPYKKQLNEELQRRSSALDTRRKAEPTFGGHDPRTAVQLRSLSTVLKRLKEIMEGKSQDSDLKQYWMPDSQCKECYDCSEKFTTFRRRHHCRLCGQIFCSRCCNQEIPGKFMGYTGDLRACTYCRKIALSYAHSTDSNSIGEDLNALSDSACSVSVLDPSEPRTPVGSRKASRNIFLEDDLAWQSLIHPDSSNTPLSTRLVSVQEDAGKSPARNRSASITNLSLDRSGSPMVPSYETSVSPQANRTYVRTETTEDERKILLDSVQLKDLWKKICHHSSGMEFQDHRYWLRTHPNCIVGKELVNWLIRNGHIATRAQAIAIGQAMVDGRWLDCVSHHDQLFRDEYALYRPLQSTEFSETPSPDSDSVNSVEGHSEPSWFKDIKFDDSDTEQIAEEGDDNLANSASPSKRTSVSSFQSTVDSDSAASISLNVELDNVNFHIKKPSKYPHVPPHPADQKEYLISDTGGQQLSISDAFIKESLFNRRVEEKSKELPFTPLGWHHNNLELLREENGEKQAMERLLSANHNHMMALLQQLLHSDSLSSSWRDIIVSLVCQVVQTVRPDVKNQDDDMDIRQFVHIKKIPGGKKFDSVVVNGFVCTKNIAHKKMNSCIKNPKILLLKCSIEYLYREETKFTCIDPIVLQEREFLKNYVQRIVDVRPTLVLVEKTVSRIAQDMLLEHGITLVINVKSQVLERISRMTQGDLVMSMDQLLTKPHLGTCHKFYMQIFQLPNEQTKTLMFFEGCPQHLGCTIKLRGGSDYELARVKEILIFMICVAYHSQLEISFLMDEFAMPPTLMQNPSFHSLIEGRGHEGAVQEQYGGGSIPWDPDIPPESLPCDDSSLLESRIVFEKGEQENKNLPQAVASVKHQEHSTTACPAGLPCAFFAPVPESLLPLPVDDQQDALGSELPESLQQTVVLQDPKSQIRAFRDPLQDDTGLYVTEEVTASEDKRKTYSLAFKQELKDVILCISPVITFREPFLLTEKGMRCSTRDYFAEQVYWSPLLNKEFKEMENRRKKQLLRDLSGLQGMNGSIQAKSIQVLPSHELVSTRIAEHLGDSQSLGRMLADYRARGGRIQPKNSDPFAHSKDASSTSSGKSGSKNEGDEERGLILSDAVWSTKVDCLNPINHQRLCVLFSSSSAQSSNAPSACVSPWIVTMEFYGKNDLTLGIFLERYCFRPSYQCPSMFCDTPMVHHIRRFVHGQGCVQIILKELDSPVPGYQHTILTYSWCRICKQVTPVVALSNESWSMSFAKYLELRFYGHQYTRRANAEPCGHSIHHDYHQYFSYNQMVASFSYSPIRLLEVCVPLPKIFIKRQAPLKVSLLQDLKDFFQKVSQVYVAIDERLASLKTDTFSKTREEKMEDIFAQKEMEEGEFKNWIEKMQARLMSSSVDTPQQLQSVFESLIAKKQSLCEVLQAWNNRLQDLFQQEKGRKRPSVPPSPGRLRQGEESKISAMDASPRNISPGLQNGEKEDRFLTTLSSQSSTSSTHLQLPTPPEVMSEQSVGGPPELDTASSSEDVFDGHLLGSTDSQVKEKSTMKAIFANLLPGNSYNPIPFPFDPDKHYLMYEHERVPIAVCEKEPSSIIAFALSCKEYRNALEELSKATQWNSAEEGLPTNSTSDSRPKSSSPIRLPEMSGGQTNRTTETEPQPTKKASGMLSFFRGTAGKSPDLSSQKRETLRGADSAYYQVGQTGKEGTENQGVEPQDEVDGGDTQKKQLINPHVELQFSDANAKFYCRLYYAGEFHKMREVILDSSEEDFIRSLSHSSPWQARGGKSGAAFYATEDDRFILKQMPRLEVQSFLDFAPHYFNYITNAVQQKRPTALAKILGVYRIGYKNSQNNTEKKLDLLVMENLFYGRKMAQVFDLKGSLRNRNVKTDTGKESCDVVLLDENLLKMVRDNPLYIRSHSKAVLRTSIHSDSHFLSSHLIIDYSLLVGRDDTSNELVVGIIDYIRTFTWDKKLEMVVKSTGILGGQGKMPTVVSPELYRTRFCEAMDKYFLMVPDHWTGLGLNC
The IC50 is the concentration needed to halve the response being measured. For the compound `Cn1c(-c2ccncc2)nc2nc(-c3ccnc(-c4ccccc4)n3)nc(N3CCOCC3)c21` [Compound 2, 7-methyl-6-(morpholin-4-yl)-2-(2-phenylpyrimidin-4-yl)-8-(pyridin-4-yl)-7H-purine], the IC50 fell in the range of 1000 to 10000 nM.
Same read-out and setting: the same measure for `Cn1c(-c2ccncc2)nc2c(N3CCOCC3)nc(-c3cccc(C4CCNCC4)n3)nc21` [Compound 3]: 10 to 100 nM; for `Cn1c(-c2ccncc2)nc2c(N3CCOCC3)nc(-c3cccc(C4CCN(C(=O)OC(C)(C)C)CC4)n3)nc21` [Compound 4]: 100 to 1000 nM; for `CCn1c(-c2ccncc2)nc2c(N3CCOCC3)nc(-n3ccc(-c4ccccc4)n3)nc21` [Compound 5]: 10 to 100 nM.
The same measure, in the same setting: the figure for `Cn1c(-c2ccncc2)nc2c(N3CCOCC3)nc(-n3ccc(-c4cccnc4)n3)nc21` [Compound 7, 9-methyl-6-(morpholin-4-yl)-2-[3-(pyridin-3-yl)-1H-pyrazol-1-yl]-8-(pyridin-4-yl)-9H-purine] is 10 to 100 nM; for `Cn1c(-c2ccncc2)nc2c(N3CCOCC3)ncnc21` [Compound 8] it is 100 to 1000 nM.
Still for that read-out and setting: the figure for `CN1CCC(c2nc3c(N4CCOCC4)nc(-n4ccc(-c5ccccc5)n4)nc3n2C)CC1` [Compound 9] is 100 to 1000 nM.
Consider `Cn1c(C2CCCNC2)nc2c(N3CCOCC3)nc(-n3ccc(-c4ccccc4)n3)nc21` (stereo not shown) [Compound 10], for which the IC50 lay within 100 to 1000 nM.
Same read-out and setting: the same measure for `Cn1c(C2CCNCC2)nc2c(N3CCOCC3)nc(-n3ccc(-c4ccccc4)n3)nc21` [Compound 11]: 100 to 1000 nM.
Still for that read-out and setting: the same measure for `Cn1c(C2CCOCC2)nc2c(N3CCOCC3)nc(-n3ccc(-c4ccccc4)n3)nc21` [Compound 12]: 100 to 1000 nM.
The same measure, in the same setting: the same measure for `Cn1c(C2CN(C(=O)OC(C)(C)C)C2)nc2c(N3CCOCC3)nc(-n3ccc(-c4ccccc4)n3)nc21` [Compound 13, tert-butyl 3-(9-methyl-6-morpholino-2-(3-phenyl-1H-pyrazol-1-yl)-9H-purin-8-yl)azetidine-1-carboxylate]: 10 to 100 nM; for `Cn1c(C2=CCOCC2)nc2c(N3CCOCC3)nc(-n3ccc(-c4ccccc4)n3)nc21` [Compound 14]: 10 to 100 nM; for `CN1CCCC(c2ccn(-c3nc(N4CCOCC4)c4nc(C5CCOCC5)n(C)c4n3)n2)C1` (stereo not shown) [Compound 15]: 1000 to 10000 nM.
Regarding `Cn1c(C2CCOCC2)nc2c(N3CCOCC3)nc(-n3ccc(C4CCCNC4)n3)nc21` (stereo not shown) [Compound 16], the IC50 fell in the range of 1000 to 10000 nM.
As to `Cn1c(-c2ccncc2)nc2c(N3CCOCC3)nc(-n3ccc(C4CCCNC4)n3)nc21` (stereo not shown) [Compound 17], the IC50 lay in the range of 100 to 1000 nM.
`CN1CCC(c2ccn(-c3nc(N4CCOCC4)c4nc(-c5ccncc5)n(C)c4n3)n2)CC1` [Compound 18]: the IC50 lay within 100 to 1000 nM.
The same measure, in the same setting: the same measure for `Cn1c(C2CCOCC2)nc2c(N3CCOCC3)nc(-n3ccc(-c4cccnc4)n3)nc21` [Compound 19, 4-(9-methyl-2-(3-(pyridin-3-yl)-1H-pyrazol-1-yl)-8-(tetrahydro-2H-pyran-4-yl)-9H-purin-6-yl)morpholine]: 1000 to 10000 nM; for `Cn1c(C2CCOCC2)nc2c(N3CCOCC3)nc(-n3ccc(-c4cncnc4)n3)nc21` [Compound 20]: 1000 to 10000 nM.
Still for that read-out and setting: the same measure for `Cn1c(-c2ccncc2)nc2c(N3CCOCC3)nc(-n3ccc(C4CCNCC4)n3)nc21` [Compound 21]: 10 to 100 nM.
The same measure, in the same setting: the figure for `c1cc(-c2nc3c(N4CCOCC4)nc(-n4ccc(C5CCCNC5)n4)nc3[nH]2)ccn1` (stereo not shown) [Compound 22] is 10 to 100 nM; for `CC(C)c1ccn(-c2nc(N3CCOCC3)c3nc(-c4ccncc4)n(C)c3n2)n1` [Compound 23] it is 100 to 1000 nM; for `Cc1nn(-c2nc(N3CCOCC3)c3nc(-c4ccncc4)n(C)c3n2)c(=O)n1-c1ccccc1` [Compound 24] it is 100 to 1000 nM.
On to `Cn1c(-c2ccncc2)nc2c(N3CCOCC3)nc(-n3ccc(C4CCOCC4)n3)nc21` [Compound 25], for which the IC50 lay in the range of 100 to 1000 nM.
Same read-out and setting: the figure for `Cn1c(-c2ccncc2)nc2c(N3CCOCC3)nc(-n3ccc(-c4ccncc4)n3)nc21` [Compound 27] is 10 to 100 nM.
On the same count and under the same terms, the figure for `Cn1c(-c2ccncc2)nc2c(N3CCOCC3)nc(-n3ccc(C4CCCN(C(=O)OC(C)(C)C)C4)n3)nc21` (stereo not shown) [Compound 29] is 100 to 1000 nM.
On the same count and under the same terms, the figure for `CN1CCCC(c2nc(-c3nc(N4CCOCC4)c4nc(-c5ccncc5)n(C)c4n3)no2)C1` (stereo not shown) [Compound 30] is 100 to 1000 nM.
In the case of `Cn1c(-c2ccncc2)nc2c(N3CCOCC3)nc(-c3noc(C4CCCNC4)n3)nc21` (stereo not shown) [Compound 31], the IC50 lay within 100 to 1000 nM.
Turning to `Cn1c(-c2ccncc2)nc2c(N3CCOCC3)nc(-c3noc(C4CCCN(C(=O)OC(C)(C)C)C4)n3)nc21` (stereo not shown) [Compound 33, tert-butyl 3-{3-[9-methyl-6-(morpholin-4-yl)-8-(pyridin-4-yl)-9H-purin-2-yl]-1,2,4-oxadiazol-5-yl}piperidine-1-carboxylate], the IC50 lay in the range of 100 to 1000 nM.
The same measure, in the same setting: the same measure for `Cn1c(-c2ccncc2)nc2c(N3CCOCC3)nc(-n3ccc(C4CC5(C4)CN(C(=O)OC(C)(C)C)C5)n3)nc21` [Compound 34]: 100 to 1000 nM; for `Cn1c(-c2ccncc2)nc2c(N3CCOCC3)nc(-n3ccc(C4CC5(CNC5)C4)n3)nc21` [Compound 35]: 10 to 100 nM.
Same read-out and setting: the figure for `Cn1c(C2=CCOCC2)nc2c(N3CCOCC3)nc(-n3ccc(-c4cccc(C#N)c4)n3)nc21` [Compound 36, 3-{1-[8-(3,6-dihydro-2H-pyran-4-yl)-9-methyl-6-(morpholin-4-yl)-9H-purin-2-yl]-1H-pyrazol-3-yl}benzonitrile] is 1000 to 10000 nM; for `Cn1c(-c2ccncc2)nc2c(N3CCOCC3)nc(-n3ccc(C4CCNC4)n3)nc21` (stereo not shown) [Compound 38] it is 100 to 1000 nM.
As to `Cn1c(C2CCOCC2)nc2c(N3CCOCC3)nc(-n3ccc(-c4cccc(C#N)c4)n3)nc21` [Compound 39], the IC50 lay in the range of 1000 to 10000 nM.
The same measure, in the same setting: the same measure for `Cn1c(-c2ccncc2)nc2c(N3CCOCC3)nc(-n3ccc(C4CCN(C(=O)OC(C)(C)C)C4)n3)nc21` (stereo not shown) [Compound 40]: 100 to 1000 nM; for `Cn1c(-c2ccncc2)nc2c(N3CCOCC3)nc(-c3ccn(C4CCCNC4)n3)nc21` (stereo not shown) [Compound 41]: 100 to 1000 nM; for `Cn1c(-c2ccncc2)nc2c(N3CCOCC3)nc(-c3ccnn3C3CCCN(C(=O)OC(C)(C)C)C3)nc21` (stereo not shown) [Compound 42]: 100 to 1000 nM.
`Cn1c(-c2ccncc2)nc2c(N3CCOCC3)nc(-c3ccn(C4CCCN(C(=O)OC(C)(C)C)C4)n3)nc21` (stereo not shown) [Compound 43]: the IC50 lay within 100 to 1000 nM.
With `Cn1c(-c2ccncc2)nc2c(N3CCOCC3)nc(-c3cccc4c3OCCO4)nc21` [Compound 44], the IC50 was in the range of 100 to 1000 nM.
On the same count and under the same terms, the figure for `Cn1c(-c2ccncc2)nc2c(N3CCOCC3)nc(-c3ccc4c(c3)OCCO4)nc21` [Compound 45] is 10 to 100 nM; for `Cn1c(-c2ccncc2)nc2c(N3CCOCC3)nc(-c3ccn(-c4ccccc4)n3)nc21` [Compound 46, 9-methyl-6-(morpholin-4-yl)-2-(1-phenyl-1H-pyrazol-3-yl)-8-(pyridin-4-yl)-9H-purine] it is 10 to 100 nM.
Same read-out and setting: the same measure for `Cn1ccc(-c2nc(N3CCOCC3)c3nc(-c4ccncc4)n(C)c3n2)n1` [Compound 48]: 100 to 1000 nM; for `Cn1c(-c2ccncc2)nc2c(N3CCOCC3)nc(-c3cc[nH]n3)nc21` [Compound 49]: 10 to 100 nM.
On the same count and under the same terms, the figure for `Cn1c(-c2ccncc2)nc2c(N3CCOCC3)nc(-n3nc(C4CCCCC4)[nH]c3=O)nc21` [Compound 50, 3-cyclohexyl-1-[9-methyl-6-(morpholin-4-yl)-8-(pyridin-4-yl)-9H-purin-2-yl]-4,5-dihydro-1H-1,2,4-triazol-5-one] is 100 to 1000 nM.
With `Cn1c(-c2ccncc2)nc2c(N3CCOCC3)nc(-n3ccc(CC4CNC4)n3)nc21` [Compound 80, 4-(2-(3-(azetidin-3-ylmethyl)-1H-pyrazol-1-yl)-9-methyl-8-(pyridin-4-yl)-9H-purin-6-yl)morpholine], the IC50 was in the range of 100 to 1000 nM.
The same measure, in the same setting: the same measure for `CN1CC(c2nc3c(N4CCOCC4)nc(-n4ccc(-c5ccccc5)n4)nc3n2C)C1` [Compound 81, 4-(9-methyl-8-(1-methylazetidin-3-yl)-2-(3-phenyl-1H-pyrazol-1-yl)-9H-purin-6-yl)morpholine]: 100 to 1000 nM; for `Cn1c(-c2ccncc2)nc2c(N3CCOCC3)nc(-n3ccc(-c4cncnc4)n3)nc21` [Compound 82, 4-(9-methyl-8-(pyridin-4-yl)-2-(3-(pyrimidin-5-yl)-1H-pyrazol-1-yl)-9H-purin-6-yl)morpholine]: 10 to 100 nM.

The same assay, now with this note: values plotted in FIG. 7; read-out: PIKFYVE Biochemistry (IC50).
`c1ccc(-c2nc(-c3cc(N4CCOCC4)nc(OCc4ccncc4)n3)no2)cc1`: the half-inhibitory concentration (IC50) is more than 10000 nM.
The same measure, in the same setting: the same measure for `O=c1c(CCOc2cccnc2)cc2ncncc2n1-c1ccccc1`: more than 10000 nM; for `O=c1ccn(Cc2nc(N3CCOCC3)cc(-n3nccc3-c3ccccc3)n2)cc1`: more than 10000 nM.

These data come from US20240150358A1, “PURINES AND METHODS OF THEIR USE” (Kineta, Inc., priority 2020, published 2024).
